This assay concerns the target hCB2R (Homo sapiens, UniProt P34972). In kind it is cell-based. To be noted: 5 µM inhibitor, 90 min preincubation; probes 12, 15, 18; hCB2R CHO cells.

Chain of hCB2R (P34972 whole entry): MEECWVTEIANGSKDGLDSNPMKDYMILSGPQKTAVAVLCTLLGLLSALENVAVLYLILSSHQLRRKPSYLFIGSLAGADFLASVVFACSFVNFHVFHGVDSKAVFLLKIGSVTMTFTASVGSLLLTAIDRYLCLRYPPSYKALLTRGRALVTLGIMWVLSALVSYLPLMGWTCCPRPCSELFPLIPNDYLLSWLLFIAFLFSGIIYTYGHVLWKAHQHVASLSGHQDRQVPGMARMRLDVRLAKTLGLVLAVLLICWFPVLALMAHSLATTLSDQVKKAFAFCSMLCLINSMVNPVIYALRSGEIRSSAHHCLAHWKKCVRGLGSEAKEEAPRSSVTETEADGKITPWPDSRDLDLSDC

For the compound `CC(C)(C)c1nc(N2CC[C@H](O)C2)c2nnn(Cc3nnnn3C3CC3)c2n1` [RO6871304], the “blocking of fluorescent probe staining” value is “completely blocked the staining”.

Source of the values: publication PMC11485011 (Chemical Science, 2024).
